Reference: PMC12070314, “Efficient Small-Molecule Reversal Agents for Anticoagulant Fondaparinux” (ACS Pharmacology & Translational Science, 2025)

Columns and labels:
HeLa cells = assay: MTT cell viability assay; type: cell-based; details: concentrations <100 μM
Experimental: (§1) A549 and HeLa cells were maintained in DMEM ([…] glucose, Sigma) containing 10% fetal calf serum (FCS), 2 mM glutamine, 50 U/mL penicillin, and […] streptomycin at 37 °C under a 5% CO2 atmosphere. HMEC-1 and fibroblast cells were maintained in MCDB 131 medium (GIBCO) containing 10% fetal calf serum (FCS), 2 mM glutamine, 50 U/mL penicillin, and […] streptomycin at 37 °C under a 5% CO2 atmosphere.
(§2) The viability of A549 and HeLa cells was tested using the 3-(4,5-dimethylthiazol-2-yl)-2,5-diphenyltetrazolium bromide (MTT) assay. In it, exponentially growing cells were detached from the culture flasks using a trypsin–0.25% EDTA solution, and the cell suspension was seeded onto a 96-well plate (Nunclon) at a concentration of 9k cells/well. The toxicity of 3AC and 3FF was tested as follows: 24 h after seeding, culture medium was discarded and replaced by compound solution in PBS that was diluted with cell culture medium to the final concentration: [3××] = 10 to 100 μM. MTT (0.5 mg/mL) was added. […] Absorbance was measured at 570 nm using a spectrophotometric BioTek Synergy 2 Microplate Reader (Agilent), 30 min after the addition of DMSO. Cell viability is expressed as an absorbance percent ratio of cells treated with compound to untreated cells, which were used as a control. The results are the average from three independent experiments.

A549 cells = assay: MTT cell viability assay; type: cell-based; details: A549, concentrations <100 μM
Experimental: as §1, §2

Hemolysis assay = type: cell-based; details: freshly isolated mouse erythrocytes, roughly 4-5% suspension, 37 °C
Experimental: Mouse blood (4 mL) was collected in a sodium citrate tube and immediately centrifuged at 1700g for 5 min. The supernatant was removed, and the erythrocytes were washed by adding 2 mL of PBS. It was centrifuged again at 1700g for 5 min. The washing step was repeated twice more. The supernatant was finally removed, and the erythrocytes were diluted in PBS until obtaining a roughly 4–5% suspension. 50 μL of erythrocyte solution was mixed with 50 μL of test compound (3×× at the desired concentration). As a negative control, 50 μL of PBS was used, while 10% Triton X-100 was used as a positive control. The samples were incubated at 37 °C for 60 min. After that, they were centrifuged (1700g for 5 min), and the supernatant was transferred to a 96-well plate. Absorbance was measured at 405 nm. The experiment contained three technical replicates. The results are the average from three independent experiments.

[1] = test system: FXa/ATIII inhibited by fondaparinux; assay: In vitro FXa/ATIII enzymatic assay of anti-fondaparinux activity; type: biochemical, human; details: for Restoration of FXa protease activity (hydrolysis rate of the peptide substrate): 15 μM fond + 9 or 15 μM antidote, HPLC
Experimental: The activity of two spermine derivatives, 3AC and 3FF, as fond antidotes was evaluated with an in vitro enzymatic assay related to blood coagulation, as previously described (Figure A). , In brief, fond promotes a conformational change in ATIII toward an efficient inhibitor of FXa. Addition of a ligand of fond hinders the inhibitory action of ATIII restoring the FXa hydrolytic activity, which has been used as an indirect measurement of antifond behavior.
Recombinant antithrombin III and coagulation factor Xa were obtained from two different kits, Berichrom Heparin test (SIEMENS) and Kinetichrome Anti-Xa Heparin kit (Iduron). Methods for both kits are similar, but not identical. Differences will be spotted by method A (SIEMENS) and method B (Iduron). Following the manufacturer’s instructions, stock solutions were prepared as follows: human antithrombin III (1 IU/mL) and factor Xa reagent (0.4 μg/mL, human plasma fraction with additives Tris, sodium chloride, and EDTA). Chromogenic substrate specific for factor Xa was dissolved at 4 mM concentration (A: Z-D-Leu-Gly-Arg-ANBA-methyl amide, and B: Z-D-Arg-Gly-Arg-pNA). Additionally, either 4-nitroaniline (A) or N-Boc-4-nitroaniline (B) was added to the substrate solution at a concentration of 1.6 mM and used as an internal standard to quantify the hydrolysis of the chromogenic substrate. All compounds were dissolved in Milli-Q water at the desired stock concentrations prior to start of the assays and kept at 4 °C. Various concentrations of the ligand, fondaparinux (up to 15 μM) or LMWH (0.1 to 10 μM), human antithrombin III solution (2 μL), and factor Xa reagent solution (35 μL) were consecutively added to an Eppendorf vial and brought to a total volume of 145 μL. Then, 20 μL of reagent substrate solution was added to start the experiment, and the mixture was vigorously shaken at 25 °C. 20 μL aliquots were taken at 5/10/15/20/30/50/80/120 minutes, diluted with 40 μL of acetic acid (20% v/v), and injected into the analytical HPLC system. The gradient ranged from 5% of ACN (0.1% formic acid) in water (0.1% formic acid) to 100% of ACN in 24 min using a 15 × 4.6 mm KROMAPHASE C18 5.0 μm column. In A: the retention time of cleaved chromophore was 9.1 min, retention time of chromogenic substrate was 13.9 min, and retention time of 4-nitroaniline was 15.4 min. In B: the retention time of chromogenic substrate was 11.0 min, retention time of cleaved chromophore was 15.2 min, and retention time of N-Boc-4-nitroaniline was 21.7 min. FXa/ATIII activity was represented as the percent of hydrolysis, which was calculated from the normalized area of the cleaved peptide at 405 nm at each corresponding time point. The experiment carried out in the absence of heparinoid was considered as the maximum of activity, while the experiment with heparinoid and no ligand was considered as negative control (maximum inhibition of FXa by heparinoid). The concentration of heparinoid was selected for the measurement to render significant inhibition within experimental time while allowing the reaction to proceed.

[2] = [fond] = [antidote] = 15 μM, three reaction times

SMILES | Cell viability (toxicity) (HeLa cells) | Cell viability (toxicity) (A549 cells) | hemolysis at 60 min (Hemolysis assay) [%] | Restoration of FXa protease activity (hydrolysis rate of the peptide substrate) [1] | Percent recovery of peptide substrate hydrolysis ([1]; [fond] = 15 μM, lower antidote concentration (9 μM), Figure S2) | Percent recovery of peptide substrate hydrolysis [1, 2]
Oc1ccccc1CNCCCNCCCCNCCCNCc1ccc2c(c1)Cc1ccccc1-2 [Compound 3AC] | low to acceptable cell toxicity | low to acceptable cell toxicity | < 2 | restore the FXa protease activity in a dose–response manner | higher potency | almost complete fast recovery up to the control values
Oc1ccc2ccccc2c1CNCCCNCCCCNCCCNCc1c(O)ccc2ccccc12 [Compound 3FF] | low to acceptable cell toxicity | low to acceptable cell toxicity | < 2 | restore the FXa protease activity in a dose–response manner | – | almost complete fast recovery up to the control values
